Measurements reported in patent publication US20090076199A1, “RED DYE MIXTURE” (LANXESS DEUTSCHLAND GMBH, priority 2007, published 2009).

Tests used:
Assay type in all cases: physicochemical
[1] = Maximum solubility of the dyes in methyl benzoate and spectral data of the saturated solutions; conditions: for Solubility (maximum solubility): in methyl benzoate; for E11 = Extinction (absorbance) of 1 g of this solution in 100 ml of N-methyl-pyrrolidone, 1 cm cell: saturated solution of the dye alone in methyl benzoate
Protocol: The maximum solubility of the dyes was determined in methyl benzoate.

[2] = Mass colouring of transparent polyethylene terephthalate, twin-screw extruder at 280° C., fastness; conditions: 0.025 g dye per 100 g transparent polyethylene terephthalate
Protocol: b) 0.025 g of the dye from Example 4 are mixed with 100 g of a transparent polyethylene terephthalate grade and the mixture is homogenized in a twin-screw extruder at 280° C. This gives a transparent bluish red coloration with good light fastness and migration fastness. After subsequent granulation the coloured plastic can be processed in accordance with the typical methods of thermoplastic shaping.

[3] = Mass colouring of polystyrene granules, injection moulding at 240° C., fastness; conditions: 0.02 g dye per 100 g polystyrene, transparent sheets
Protocol: a) 100 g of polystyrene granules and 0.02 g of the dye from Example 4 are mixed intensely in a drum mixer for 15 min. The dry-stained granules are processed on a screw injection moulding machine at 240° C. This gives transparent bluish red sheets of very good light fastness and migration fastness.

[4] = Mass colouring of polycarbonate, twin-screw extruder at 290° C., fastness; conditions: 0.03 g dye per 100 g polycarbonate
Protocol: c) 100 g of a commercially customary polycarbonate are dry-mixed in granule form with 0.03 g of the dye from Example 4. The granules dusted in this way are homogenized in a twin-screw extruder at 290° C. This gives a transparent bluish red coloration with good light fastness and migration fastness. The coloured polycarbonate is extruded as a strand from the extruder and processed to granules. The granules can be processed by the typical methods of processing thermoplastic compounds.

Solubility (maximum solubility) [1] [g/100 ml] | E11 = Extinction (absorbance) of 1 g of this solution in 100 ml of N-methyl-pyrrolidone, 1 cm cell [1] | light fastness [2] | migration fastness [2] | light fastness [3] | migration fastness [3] | light fastness [4] | migration fastness [4] | SMILES
0.57 | 1.8 |  |  |  |  |  |  | Nc1c(Oc2ccc(C3(c4ccc(Oc5cc(O)c6c(c5N)C(=O)c5ccccc5C6=O)cc4)CCCCC3)cc2)cc(O)c2c1C(=O)c1ccccc1C2=O [Dye (15)]
 |  | good | good | very good | very good | good | good | Nc1c(OCCOc2ccc(OCCOc3cc(O)c4c(c3N)C(=O)c3ccccc3C4=O)cc2)cc(O)c2c1C(=O)c1ccccc1C2=O [Example 4]
0.107 | 0.17 |  |  |  |  |  |  | O=C1c2c(Cl)c(Cl)c(Cl)c(Cl)c2C2=Nc3cccc4cccc(c34)N12 [Dye (7), reference compound]
